The values below come from ChEMBL document CHEMBL3421625, “Discovery and optimization of novel antagonists to the human neurokinin-3 receptor for the treatment of sex-hormone disorders (Part I)” (J Med Chem, 2015).

Each structure is given as a SMILES string. The source made the active and inactive calls. No cut-off for these calls is given here.

Data set [1] addresses Kappa-type opioid receptor (Homo sapiens) (UniProt P41145). Nature of the data set: Inhibition of KOR (unknown origin) at 10 uM relative to control.
Data set [2] addresses Neuropeptide FF receptor 1 (Homo sapiens) (UniProt Q9GZQ6). Briefly: Inhibition of NPFF1 (unknown origin) at 10 uM relative to control.
A short description of data set [3]: Apparent permeability across apical to basolateral side in human Caco2 cells in presence of 0.1% bovine serum albumin. To be noted: Caco-2.
Data set [4] is described as follows: Apparent permeability across basolateral to apical side in human Caco2 cells in presence of 0.1% bovine serum albumin. To be noted: Caco-2. Background: Caco-2 monolayers are a common model of the intestinal barrier.
For data set [5], the system named is Cynomolgus monkey. Briefly: In vivo inhibition of NK3R in castrated cynomolgus monkey assessed as decrease in plasma luteinizing hormone level at 20 mg/kg, po measured at 90 mins relative to control. The format is functional. The following applies: Macaca fascicularis, 1.5 h.
Data set [6] can be described thus: Volume of distribution at steady state in castrated cynomolgus monkey at 10 mg/kg, iv by LC-MS/MS analysis. To be noted: male, in vivo.
For data set [7], the system named is Cynomolgus monkey. Nature of the data set: Unbound Cmax in castrated cynomolgus monkey at 20 mg/kg, po by LC-MS/MS analysis. The format is ADME, organism-based, Macaca fascicularis. Further details: dose 20 mg/kg, route oral. The following applies: in vivo.
Data set [8] in a line: Total systemic clearance in castrated cynomolgus monkey at 10 mg/kg, iv by LC-MS/MS analysis. The format is ADME, organism-based, Macaca fascicularis. Also on record: dose 10 mg/kg, route intravenous. To be noted: male, in vivo.
A short description of data set [9]: Tmax in castrated cynomolgus monkey at 20 mg/kg, po by LC-MS/MS analysis. The format is ADME, organism-based, Macaca fascicularis. Further details: dose 20 mg/kg, route oral. To be noted: male, in vivo.
Data set [10] deals with Cynomolgus monkey. Briefly: Unbound AUC in castrated cynomolgus monkey at 20 mg/kg, po by LC-MS/MS analysis. The format is ADME, organism-based, Macaca fascicularis. Further details: dose 20 mg/kg, route oral. To be noted: in vivo.
The subject of data set [11] is Cynomolgus monkey. Briefly: Unbound AUC in castrated cynomolgus monkey at 5 mg/kg, po by LC-MS/MS analysis. The format is ADME, organism-based, Macaca fascicularis. Further details: dose 5 mg/kg, route oral. To be noted: in vivo.
Data set [12] relates to Cynomolgus monkey. Briefly: Unbound AUC in castrated cynomolgus monkey at 10 mg/kg, iv by LC-MS/MS analysis. Also on record: dose 10 mg/kg, route intravenous. The following applies: in vivo. In kind it is ADME, organism-based, Macaca fascicularis.
Data set [13] has as its system Rattus norvegicus. Nature of the data set: Hepatotoxicity in Sprague-Dawley rat assessed as effect on ALT level at 30 mg/kg, po bid administered for 5 days. To be noted: in vivo, 120 h. In kind it is toxicity, organism-based. Also on record: dose 30 mg/kg, route oral.
Data set [14] concerns Rattus norvegicus. Briefly: Hepatotoxicity in Sprague-Dawley rat assessed as effect on AST level at 30 mg/kg, po bid administered for 5 days. In kind it is toxicity, organism-based. Also on record: dose 30 mg/kg, route oral. To be noted: in vivo, 120 h.
The test system of data set [15] is Rattus norvegicus. Nature of the data set: Hepatotoxicity in Sprague-Dawley rat assessed as effect on bilirubin level at 30 mg/kg, po bid administered for 5 days. The format is toxicity, organism-based. Further details: dose 30 mg/kg, route oral. The following applies: in vivo, 120 h.
The subject of data set [16] is Cynomolgus monkey. Briefly: In vivo inhibition of NK3R in castrated cynomolgus monkey assessed as decrease in plasma luteinizing hormone level at 20 mg/kg, po measured at 90 to 300 mins. To be noted: Macaca fascicularis. In kind it is functional, organism-based. Also on record: dose 20 mg/kg.
The subject of data set [17] is Cynomolgus monkey. Nature of the data set: In vivo inhibition of NK3R in castrated cynomolgus monkey assessed as decrease in plasma luteinizing hormone level at 20 mg/kg, po measured at 480 mins. Further details: dose 20 mg/kg. To be noted: Macaca fascicularis. In kind it is functional, organism-based.
Data set [18] concerns the target Voltage-gated inwardly rectifying potassium channel KCNH2 (Homo sapiens, UniProt Q12809).
Description: Inhibition of human ERG expressed in HEK293 cells after 5 mins by patch-clamp assay
The target in data set [19] is T1, Substance-K receptor (Homo sapiens, UniProt P21452).
T1 sequence (P21452 whole entry): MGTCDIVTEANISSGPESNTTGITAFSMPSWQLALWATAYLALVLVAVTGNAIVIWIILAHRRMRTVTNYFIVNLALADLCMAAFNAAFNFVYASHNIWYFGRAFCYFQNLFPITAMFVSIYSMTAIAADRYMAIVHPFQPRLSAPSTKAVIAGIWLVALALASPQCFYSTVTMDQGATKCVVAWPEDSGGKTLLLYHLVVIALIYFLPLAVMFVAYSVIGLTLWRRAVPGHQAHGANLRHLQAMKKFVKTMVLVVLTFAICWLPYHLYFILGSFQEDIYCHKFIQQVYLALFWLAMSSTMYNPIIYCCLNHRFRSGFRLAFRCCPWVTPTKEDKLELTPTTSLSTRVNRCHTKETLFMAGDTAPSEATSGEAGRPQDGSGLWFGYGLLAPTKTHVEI
Briefly: Displacement of [125I]-neurokinin A from human NK2R after 90 mins by scintillation counting analysis. For orientation: In a radioligand displacement assay an active substance lowers the binding of a labelled ligand.

The test system of data set [20] is Rattus norvegicus. Nature of the data set: In vivo inhibition of NK3R in castrated Sprague-Dawley rat assessed as decrease in serum luteinizing hormone level at 10 mg/kg, iv by radioimmunoassay relative to control. In kind it is functional.
Data set [21] concerns the target T2, Neuromedin-K receptor (Homo sapiens, UniProt P29371).
T2 sequence (P29371 whole entry): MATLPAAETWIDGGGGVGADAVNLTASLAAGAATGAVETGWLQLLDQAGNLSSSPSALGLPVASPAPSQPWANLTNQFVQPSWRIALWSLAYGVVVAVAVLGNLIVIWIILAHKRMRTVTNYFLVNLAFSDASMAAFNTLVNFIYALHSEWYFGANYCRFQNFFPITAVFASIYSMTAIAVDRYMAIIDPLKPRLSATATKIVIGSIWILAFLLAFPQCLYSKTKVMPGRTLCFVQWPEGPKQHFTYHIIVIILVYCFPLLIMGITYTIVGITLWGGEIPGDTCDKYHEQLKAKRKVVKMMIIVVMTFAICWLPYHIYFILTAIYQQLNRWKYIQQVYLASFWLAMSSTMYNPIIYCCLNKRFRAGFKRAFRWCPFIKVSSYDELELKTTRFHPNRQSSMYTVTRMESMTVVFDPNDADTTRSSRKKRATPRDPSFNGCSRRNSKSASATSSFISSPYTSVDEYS

For data set [22], the target named is Substance-P receptor (Homo sapiens, UniProt P25103).
Description: Displacement of [3H]-Substance P from human NK1R after 90 mins by scintillation counting analysis
Data set [23] in a line: in vivo. The following applies: Sprague-Dawley, rat, iv, 1 mg/kg.
The nature of data set [24]: in vivo. To be noted: Sprague-Dawley, rat, po, 3 mg/kg.
Data set [25] addresses T2, Neuromedin-K receptor. Nature of the data set: biochemical.
Description: Displacement of [3H]-SB222200 from recombinant human NK3R expressed in CHO cell membranes after 90 mins by scintillation counting analysis

Sequence of Kappa-type opioid receptor (Homo sapiens) (P41145 whole entry): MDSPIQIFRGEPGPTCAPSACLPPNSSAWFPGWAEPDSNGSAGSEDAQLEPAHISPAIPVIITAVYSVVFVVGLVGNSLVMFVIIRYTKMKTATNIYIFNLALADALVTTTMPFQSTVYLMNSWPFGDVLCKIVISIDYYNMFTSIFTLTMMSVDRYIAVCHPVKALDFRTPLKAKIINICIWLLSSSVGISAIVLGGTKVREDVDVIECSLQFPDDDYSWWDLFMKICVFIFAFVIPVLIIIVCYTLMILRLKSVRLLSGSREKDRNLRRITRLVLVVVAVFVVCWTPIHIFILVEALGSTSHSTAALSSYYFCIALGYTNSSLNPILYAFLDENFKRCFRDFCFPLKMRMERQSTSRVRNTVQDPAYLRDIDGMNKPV
Sequence of Substance-P receptor (P25103 whole entry): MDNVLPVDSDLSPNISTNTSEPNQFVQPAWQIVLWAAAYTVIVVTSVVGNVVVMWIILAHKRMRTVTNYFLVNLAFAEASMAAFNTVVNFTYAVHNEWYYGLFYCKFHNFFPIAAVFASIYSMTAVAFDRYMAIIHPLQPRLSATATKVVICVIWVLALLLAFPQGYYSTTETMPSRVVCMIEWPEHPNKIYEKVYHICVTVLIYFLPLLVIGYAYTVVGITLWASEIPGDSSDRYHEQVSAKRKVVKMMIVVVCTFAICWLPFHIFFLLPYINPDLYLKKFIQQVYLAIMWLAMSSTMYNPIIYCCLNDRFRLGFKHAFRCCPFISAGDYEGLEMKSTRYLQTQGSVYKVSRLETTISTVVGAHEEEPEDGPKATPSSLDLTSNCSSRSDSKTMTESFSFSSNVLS
Sequence of Neuropeptide FF receptor 1 (Homo sapiens) (Q9GZQ6 whole entry): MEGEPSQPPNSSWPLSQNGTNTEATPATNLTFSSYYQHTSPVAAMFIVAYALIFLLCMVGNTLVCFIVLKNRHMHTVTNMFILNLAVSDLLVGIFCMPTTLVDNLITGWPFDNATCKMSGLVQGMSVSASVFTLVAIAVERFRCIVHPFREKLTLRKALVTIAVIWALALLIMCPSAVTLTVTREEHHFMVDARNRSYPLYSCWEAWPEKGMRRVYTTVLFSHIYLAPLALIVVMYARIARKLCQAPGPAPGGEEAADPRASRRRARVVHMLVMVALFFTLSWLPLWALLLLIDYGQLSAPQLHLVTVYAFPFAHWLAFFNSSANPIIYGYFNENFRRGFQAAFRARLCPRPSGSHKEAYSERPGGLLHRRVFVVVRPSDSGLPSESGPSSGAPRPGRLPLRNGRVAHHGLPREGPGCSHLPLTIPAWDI
Sequence of Voltage-gated inwardly rectifying potassium channel KCNH2 (Q12809 whole entry): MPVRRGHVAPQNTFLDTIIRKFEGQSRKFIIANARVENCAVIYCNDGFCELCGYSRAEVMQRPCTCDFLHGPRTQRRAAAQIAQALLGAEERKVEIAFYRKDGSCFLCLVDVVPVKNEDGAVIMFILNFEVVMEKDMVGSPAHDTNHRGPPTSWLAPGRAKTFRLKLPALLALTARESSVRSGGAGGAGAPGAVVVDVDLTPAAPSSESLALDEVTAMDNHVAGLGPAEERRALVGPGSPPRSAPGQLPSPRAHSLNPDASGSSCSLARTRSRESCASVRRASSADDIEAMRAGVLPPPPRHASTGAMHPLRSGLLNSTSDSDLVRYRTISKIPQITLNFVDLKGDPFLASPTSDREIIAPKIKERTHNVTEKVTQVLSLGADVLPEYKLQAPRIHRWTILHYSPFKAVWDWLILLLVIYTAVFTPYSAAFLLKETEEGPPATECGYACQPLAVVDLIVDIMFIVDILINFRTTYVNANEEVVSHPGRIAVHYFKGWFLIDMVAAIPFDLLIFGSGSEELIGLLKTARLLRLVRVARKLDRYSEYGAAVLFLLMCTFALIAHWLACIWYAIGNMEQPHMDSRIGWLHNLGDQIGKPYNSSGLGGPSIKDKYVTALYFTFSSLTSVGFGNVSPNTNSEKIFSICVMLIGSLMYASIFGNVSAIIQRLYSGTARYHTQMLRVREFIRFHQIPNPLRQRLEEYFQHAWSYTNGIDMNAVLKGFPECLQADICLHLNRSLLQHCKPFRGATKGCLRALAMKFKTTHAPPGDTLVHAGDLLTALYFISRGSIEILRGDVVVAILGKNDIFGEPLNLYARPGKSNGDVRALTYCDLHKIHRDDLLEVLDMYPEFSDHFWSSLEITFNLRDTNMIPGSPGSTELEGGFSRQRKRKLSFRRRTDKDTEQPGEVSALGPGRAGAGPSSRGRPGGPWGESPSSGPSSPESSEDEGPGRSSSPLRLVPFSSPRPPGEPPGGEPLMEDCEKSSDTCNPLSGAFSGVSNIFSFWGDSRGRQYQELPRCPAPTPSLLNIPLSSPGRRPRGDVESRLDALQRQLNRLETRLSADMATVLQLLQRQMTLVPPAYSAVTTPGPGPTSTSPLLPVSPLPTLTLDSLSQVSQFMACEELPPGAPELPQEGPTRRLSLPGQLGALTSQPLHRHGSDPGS

By inhibition is commonly meant the drop in the measured response relative to a control, in per cent. For orientation: Papp A→B means how fast a substance crosses the layer from the apical side. What is called Papp B→A is the apparent permeability from the basolateral to the apical side of a cell layer. As a reminder, the inhibition in vivo is the percentage by which the read-out fell short of the control. As a reminder, the Vd is the apparent volume that relates the amount in the body to the concentration in plasma or blood. As usually defined, the clearance is the rate of elimination divided by the concentration. As a reminder, the Tmax is the time at which the peak concentration occurs. A word on the IC50: it is the concentration that gives 50% inhibition. For the molecule `Cc1nc(-c2nnc3n2CCN(C(=O)c2ccc(-c4cccs4)cc2)[C@@H]3C)cs1`, the values for the inhibition in data set [1] and in data set [2] were 25% and 18%, respectively. In data set [3], the apparent permeability from apical to basolateral (Papp A→B) came out at 48.2 ×10⁻⁶ cm/s. The Papp B→A in [4] turned out to be 52.9 ×10⁻⁶ cm/s. The inhibition in vivo at 20 mg/kg in data set [5] is 40%. The Vd in [6] is 1.52 L/kg. Further, in [7], the fCmax is reported as 237 nM. The molecule also gave a clearance in data set [8] of 16.5 mL/min/kg. Also, in [9], the time to peak (Tmax) is 1 h. The results for the fAUC in data set [10], in data set [11] and in data set [12] were 0.526 µM·h, 0.0646 µM·h and 1.055 µM·h, respectively. Also, the Activity result in [13], in [14] and in data set [15] was “Non-toxic” in each case. For the same molecule, the inhibition entry in data set [16] was “Active”. The inhibition entry in data set [17] is “inactive”. Besides, the IC50 in data set [18] is 24000 nM.
By Ki is commonly meant a dissociation constant, usually derived from enzyme kinetics or from competition with a known ligand. Broadly, the half-life is how long it takes for the measured level to halve. Usually bioavailability stands for the share of a dose that reaches the circulation, judged against a reference dose that is usually intravenous. For the molecule `C[C@@H]1c2nnc(-c3csc(-c4ccc(F)cc4F)n3)n2CCN1C(=O)c1ccc(-c2cccs2)cc1`, the Ki was 794 nM in [19], 1260 nM in data set [22] and 2 nM in data set [25]. In addition, the inhibition in vivo at 10 mg/kg in [20] amounted to 50%. Besides, in data set [21], the IC50 was 20 nM. Further, the half-life in data set [23] turned out to be 5.35 h. Further, the bioavailability in data set [24] amounted to 17%.
